For assay [1], the system named is 5-LO. The assay can be described thus: In vitro heparinised human blood assay, A23187 challenge, LTB4 radioimmunoassay (test b). Format: cell-based. The method, then: b) An in vitro assay system involving incubating a test compound with heparinised human blood, prior to challenge with the calcium ionophore A23187 and then indirectly measuring the inhibitory effects on 5-LO by assaying the amount of LTB4 using the specific radioimmunoassay described by Carey and Forder (F. Carey and R. A. Forder, Brit. J. Pharmacol. 1985, 84, 34P) which involves the use of a protein-LTB4 conjugate produced using the procedure of Young et alia (Prostaglandins, 1983, 26(4), 605-613). The effects of a test compound on the enzyme cyclooxygenase (which is involved in the alternative metabolic pathway for arachidonic acid and gives rise to prostaglandins, thromboxanes and related metabolites) may be measured at the same time using the specific radioimmunoassay for thromboxane B2 (TxB2) described by Carey and Forder (see above). This test provides an indication of the effects of a test compound against 5-LO and also cyclooxygenase in the presence of blood cells and proteins. It permits the selectivity of the inhibitory effect on 5-LO or cyclooxygenase to be assessed.

For assay [2], the system named is 5-LO. The assay can be described thus: Ex vivo assay: administration of test compound, blood collection, A23187 challenge, LTB4 radioimmunoassay (test c). Format: in vivo. As to conditions: oral.
Assay [3] concerns 5-LO. The assay can be described thus: Liberation of LTB4 induced by zymosan within an air pouch in male rats (test g). To be noted: 3 h, oral, rat air pouch. It counts as in vivo. As for the experimental part: g) An in vivo system involving measuring the effects of a test compound administered orally against the liberation of LTB4 induced by zymosan within an air pouch generated within the subcutaneous tissue of the back of male rats. The rats are anaesthetised and air pouches are formed by the injection of sterile air (20 ml). A further injection of air (10 ml) is similarly given after 3 days). At 6 days after the initial air injection the test compound is administered (usually orally as the supsension produced when a solution of the test compound in dimethylsulphoxide is added to hydroxypropylmethylcellulose), followed by the intrapouch injection of zymosan (1 ml of a 1% suspension in physiological saline). After 3 hours the rats are killed, the air pouches are lavaged with physiological saline, and the specific radioimmunoassay described above is used to assay LTB4 in washings. This test provides an indication of inhibitory effects against 5-LO in an inflammatory milieu.

pIC50: −log10 of the molar value. A value given as a limit tells only on which side of the number the result lay.

The values that follow come from US5221677A, “5-lipoxygenase inhibitors quinoline or isoquinoline derivatives” (Imperial Chemical Industries PLC, priority 1989, dated 1993).

In general, pIC50 refers to −log10 of the IC50, conventionally taken in molar units. High values mean a small IC50, low ones a large IC50. In general, ED50 refers to the dose at which the effect has come halfway, by size or by number of responders.

For `COC1(c2cccc(Sc3ccc4c(ccc(=O)n4C)c3)c2)CCOCC1` [Example 1, 4-[3-(1,2-dihydro-1-methyl-2-oxoquinolin-6-ylthio)phenyl]-4-methoxytetrahydropyran], the pIC50 in assay [1] is above 7.40. For the same molecule, the ED50 turned out to be 1.5 mg/kg in assay [2] and 1 mg/kg in assay [3].
